Data from US10471046B2, “Method for treating, preventing, or reducing the risk of skin infection” (Melinta Subsidiary Corp., priority 2014, dated 2019).
In brackets after ≈: the same amount, converted by molar mass. Counter-ions that a name gives are not always drawn. Like-named read-outs stand apart in the source and are kept apart here.

Experiments:
F. magna [1] = assay: Broth microdilution MIC; type: cell-based; settings: Finegoldia magna, ATCC15794; F. magna ATCC 15794
S. aureus = assay: Broth microdilution MIC; type: cell-based; settings: for MIC: Staphylococcus aureus, ATCC29213, S. aureus ATCC 29213
B. fragilis [2] = assay: Broth microdilution MIC; type: cell-based; settings: Bacteroides fragilis, ATCC25285; B. fragilis ATCC 25285
P. granulosum [3] = assay: Broth microdilution MIC; type: cell-based; settings: P. granulosum ATCC 25746
B. thetaiotaomicron = assay: microbe, parasite or virus in culture; type: cell-based; settings: for MIC: Bacteroides thetaiotaomicron, ATCC29741, read-out: MIC, broth microdilution
G. vaginalis [4] = assay: Broth microdilution MIC; type: cell-based; settings: Gardnerella vaginalis
P. granulosum [5] = assay: Agar dilution MIC (CLSI reference method); type: cell-based; settings: P. granulosum ATCC 25746
F. magna [6] = assay: Agar dilution MIC (CLSI reference method); type: cell-based; settings: Finegoldia magna, ATCC15794; F. magna ATCC 15794
P. acnes = assay: Agar dilution MIC (CLSI reference method); type: cell-based; settings: Cutibacterium acnes
G. vaginalis [7] = assay: Agar dilution MIC (CLSI reference method); type: cell-based; settings: Gardnerella vaginalis
B. fragilis [8] = assay: Agar dilution MIC (CLSI reference method); type: cell-based; settings: Bacteroides fragilis, ATCC25285; B. fragilis ATCC 25285
Enterococcus faecalis = assay: MIC against ribosome-based resistance phenotypes; type: cell-based; settings: read-out: Minimum Inhibitory Concentration (MIC)
Excerpt: (§1) Furthermore, the antibiotic compounds can be assayed for anti-proliferative or anti-infective properties on a cellular level. For example, where the target organism is a microorganism, the activity of compounds of interest can be assayed by growing the microorganisms of interest in media either containing or lacking the compound. Growth inhibition can be indicative that the molecule could be acting as a protein synthesis inhibitor. […] For this purpose, a panel of bacterial strains can be assembled to include a variety of target pathogenic species, some containing resistance mechanisms that have been characterized. Use of such a panel of organisms permits the determination of structure-activity relationships not only in regards to potency and spectrum, but also with a view to obviating resistance mechanisms.

Staphylococcus aureus = assay: MIC against ribosome-based resistance phenotypes; type: cell-based; settings: ATCC29213, Staphylococcus aureus ATCC29213, phenotype QC, read-out: Minimum Inhibitory Concentration (MIC)
Excerpt: as §1

[9] = in vivo
[10] = Approximate solubility in solvents by aliquot addition; type: physicochemical; settings: organic solvent or mixture, thermodynamic from solid
Protocol: Solubilities of the radezolid free base and radezolid HCl salt in various solvents were estimated and are shown in Tables 10 and 11, respectively, below. A weighed sample was treated with aliquots of test solvent at ambient temperature. Complete dissolution of the test material was determined by visual inspection. Solubility was estimated based on the total solvent used to provide complete dissolution. The actual solubility may be greater than the approximate solubility calculated because of the use of solvent aliquots that were too large or due to a slow rate of dissolution. […] If complete dissolution was achieved as a result of only one aliquot addition, the solubility is expressed as “greater than.” The approximate solubilities were rounded to the nearest whole number.

[11] = type: physicochemical; settings: radezolid salt forms in HPLC grade water, ambient temperature
[12] = Dynamic vapor sorption/desorption (DVS); type: physicochemical; settings: radezolid salts
Protocol: Dynamic vapor sorption/desorption (DVS) data were collected on a VTI SGA-100 Vapor Sorption Analyzer. Sorption and desorption data were collected over a range of 5% to 95% relative humidity (RH) at 10% RH intervals under a nitrogen purge. Samples were not dried prior to analysis. Equilibrium criteria used for analysis were less than 0.0100% weight change in 5 minutes, with a maximum equilibration time of 3 hours if the weight criterion was not met. Data were not corrected for the initial moisture content of the samples. Sodium chloride and polyvinylpyrrolidine (PVP) were used as calibration standards.

[13] = Solubility of salts in water by HPLC; type: physicochemical; settings: listed as HCl Salt
Protocol: In another set of experiments, solubility of various radezolid salts was determined by HPLC. Approximately 1 mL of saturated solution (with excess of solid in solution) of each salt was prepared in water. The mixture was further mixed overnight on a slurry wheel then centrifuged on a desktop centrifuge at maximum speed for ˜5 min. The supernatant was collected, and pH was measured. Solubility was determined at the native pH. Then the pH was adjusted to ˜3.5 with sodium hydroxide solution or an acid solution in which salt was generated. The supernatant was filtered through a 0.2 μm nylon syringe filter and diluted into 0.1% formic acid solution immediately after filtration for HPLC. All HPLC analyses were performed using an Agilent 1100 series liquid chromatograph equipped with a diode array detector, degasser, quaternary pump, and an autosampler. […] The column temperature was set to 30° C., and the detector wavelength was 270 nm with a bandwidth of 8 nm and a reference wavelength of 360 nm. The mobile phase A was 0.1% formic acid in water (HPLC grade), mobile phase B was 0.1% formic acid in methanol (HPLC grade). […] The injection volume was 5 μl.

[14] = ATCC14018, G. vaginalis ATCC 14018
[15] = ATCC49145, G. vaginalis ATCC 49145

CN(C)[C@@H]1C(O)=C(C(N)=O)C(=O)[C@@]2(O)C(O)=C3C(=O)c4c(O)cccc4[C@@](C)(O)[C@H]3C[C@@H]12 [TET, tetracycline]
MIC (F. magna [1]): 0.25 µg/mL (≈ 0.563 µM) | MIC (S. aureus): 1 µg/mL (≈ 2.25 µM) | MIC (B. fragilis [2]): 0.25 µg/mL (≈ 0.563 µM) | MIC (P. granulosum [3]): 0.25 µg/mL (≈ 0.563 µM) | MIC (B. thetaiotaomicron): 8 µg/mL (≈ 18 µM) | MIC (G. vaginalis [4]; [14]): 0.5 µg/mL (≈ 1.13 µM) | MIC (G. vaginalis [4]; [15]): > 32 µg/mL

CCC[C@@H]1C[C@@H](C(=O)N[C@@H]([C@H]2O[C@H](SC)[C@H](O)[C@@H](O)[C@H]2O)[C@H](C)Cl)N(C)C1 [Clindamycin, clindamycin]
MIC (F. magna [1]): 0.5 µg/mL (≈ 1.18 µM) | MIC (S. aureus): 0.25 µg/mL (≈ 0.588 µM) | MIC (P. granulosum [5]): 1 µg/mL (≈ 2.35 µM) | MIC (F. magna [6]): 1 µg/mL (≈ 2.35 µM) | MIC (B. fragilis [2]): 1 µg/mL (≈ 2.35 µM) | MIC (P. acnes; ATCC11827, P. acnes ATCC 11827): ≤ 0.06 µg/mL | MIC (P. acnes; ATCC11828, P. acnes ATCC 11828): 0.125 µg/mL (≈ 0.294 µM) | MIC (P. acnes; ATCC29399, P. acnes ATCC 29399): ≤ 0.06 µg/mL | MIC (P. granulosum [3]): 1 µg/mL (≈ 2.35 µM) | MIC (G. vaginalis [7]; [14]): 0.25 µg/mL (≈ 0.588 µM) | MIC (G. vaginalis [7]; [15]): 0.125 µg/mL (≈ 0.294 µM) | MIC (B. fragilis [8]): 2 µg/mL (≈ 4.71 µM) | MIC (G. vaginalis [4]; [14]): 0.125 µg/mL (≈ 0.294 µM) | MIC (G. vaginalis [4]; [15]): ≤ 0.06 µg/mL

CC[C@H]1OC(=O)[C@H](C)[C@@H](O[C@H]2C[C@@](C)(OC)[C@@H](O)[C@H](C)O2)[C@H](C)[C@@H](O[C@@H]2O[C@H](C)C[C@H](N(C)C)[C@H]2O)[C@](C)(O)C[C@@H](C)C(=O)[C@H](C)[C@@H](O)[C@]1(C)O [ERY, erythromycin]
MIC (F. magna [1]): 4 µg/mL (≈ 5.45 µM) | MIC (S. aureus): 1 µg/mL (≈ 1.36 µM) | MIC (B. fragilis [2]): 16 µg/mL (≈ 21.8 µM) | MIC (P. granulosum [3]): 16 µg/mL (≈ 21.8 µM) | MIC (B. thetaiotaomicron): 16 µg/mL (≈ 21.8 µM) | MIC (G. vaginalis [4]; [14]): ≤ 0.06 µg/mL | MIC (G. vaginalis [4]; [15]): ≤ 0.06 µg/mL

C[C@H]1c2cccc(O)c2C(=O)C2=C(O)[C@]3(O)C(=O)C(C(N)=O)=C(O)[C@@H](N(C)C)[C@@H]3[C@@H](O)[C@@H]21 [DOX, doxycycline]
MIC (F. magna [1]): 0.125 µg/mL (≈ 0.281 µM) | MIC difference relative to radezolid MIC (S. aureus; S. aureus, doxycycline and clindamycin: MICs lower than radezolid): 4 fold | MIC (S. aureus): 0.5 µg/mL (≈ 1.13 µM) | MIC (B. fragilis [2]): ≤ 0.06 µg/mL | MIC (P. granulosum [3]): 0.25 µg/mL (≈ 0.563 µM) | MIC difference relative to radezolid MIC (B. thetaiotaomicron; B. thetaiotaomicron, doxycycline: more potent than radezolid): 4 fold | MIC (B. thetaiotaomicron): 2 µg/mL (≈ 4.5 µM) | MIC (G. vaginalis [4]; [14]): 0.5 µg/mL (≈ 1.13 µM) | MIC (G. vaginalis [4]; [15]): 32 µg/mL (≈ 72 µM)

CC[C@H]1OC(=O)[C@H](C)[C@@H](O[C@H]2C[C@@](C)(OC)[C@@H](O)[C@H](C)O2)[C@H](C)[C@@H](O[C@@H]2O[C@H](C)C[C@H](N(C)C)[C@H]2O)[C@](C)(O)C[C@@H](C)CN(C)[C@H](C)[C@@H](O)[C@]1(C)O [Azithromycin, azithromycin]
MIC (Enterococcus faecalis; ATCC29212, Enterococcus faecalis ATCC29212, phenotype QC): 8 µg/mL (≈ 10.7 µM) | MIC (Enterococcus faecalis; ATCC29212, Enterococcus faecalis ATCC29212-P5, Lin-R (G2576U)): 8 µg/mL (≈ 10.7 µM) | MIC (Enterococcus faecalis): 128 µg/mL (≈ 171 µM) | MIC (Staphylococcus aureus): 1 µg/mL (≈ 1.34 µM)

CC(=O)NC[C@H]1CN(c2ccc(-c3ccc(CNCc4cnn[nH]4)cc3)c(F)c2)C(=O)O1.Cl [model compound]
solubility of salt in water (pH 4): 2600 µg/mL | solubility of salt in water (pH 5.4): 200 µg/mL | solubility of salt in water (pH 6.5): 60 µg/mL | intrinsic solubility (pH 6.8): 10 µg/mL | positive food effect [9]: 4 × | caco-2 permeability (caco-2): 0.5 ×10⁻⁶ cm/s

Cc1ncc([N+](=O)[O-])n1CCO [MET, metronidazole]
MIC (F. magna [1]): 0.125 µg/mL (≈ 0.73 µM) | MIC (S. aureus): > 32 µg/mL | MIC (B. fragilis [2]): 0.5 µg/mL (≈ 2.92 µM) | MIC (P. granulosum [3]): 1 µg/mL (≈ 5.84 µM) | MIC (B. thetaiotaomicron): 4 µg/mL (≈ 23.4 µM) | MIC (G. vaginalis [4]; [14]): 8 µg/mL (≈ 46.7 µM) | MIC (G. vaginalis [4]; [15]): 4 µg/mL (≈ 23.4 µM)

CC(=O)NC[C@H]1CN(c2ccc(-c3ccc(CNCc4cnn[nH]4)cc3)c(F)c2)C(=O)O1 [Hydrochloride, (5S)—N-[3-(2-Fluoro-4′-{[(1H-[1,2,3]triazol-4-ylmethyl)-amino]-methyl}-biphenyl-4-yl)-2-oxo-oxazolidin-5-ylmethyl]-acetamide chloride]
solubility ([10]; 1-butanol, Table 11: 1-Butanol, material never went into solution): < 2000 µg/mL | solubility ([10]; 2,2,2-trifluoroethanol (TFE), Table 11: 2,2,2-trifluoroethanol (TFE)): ≥ 6000 µg/mL | solubility ([10]; 2-butanone, Table 11: 2-Butanone, material never went into solution): < 2000 µg/mL | solubility ([10]; 2-propanol, Table 11: 2-Propanol, material never went into solution): < 2000 µg/mL | solubility ([10]; HFIPA/THF, Table 11: HFIPA/THF): ≥ 74000 µg/mL | solubility ([10]; HFIPA/dioxane (9:1), Table 11: HFIPA/Dioxane (9:1)): ≥ 52000 µg/mL | solubility ([10]; HFIPA/ethanol (5:1), Table 11: HFIPA/Ethanol (5:1)): ≥ 80000 µg/mL | solubility ([10]; dioxane, Table 11: Dioxane, material never went into solution): < 2000 µg/mL | solubility ([10]; ethanol, Table 11: Ethanol, material never went into solution): < 2000 µg/mL | solubility ([10]; hexafluoroisopropanol (HFIPA), Table 11: Hexafluoroisopropanol (HFIPA)): ≥ 225000 µg/mL | solubility ([10]; methanol, Table 11: Methanol, material never went into solution): < 2000 µg/mL | solubility ([10]; propionitrile, Table 11: Propionitrile, material never went into solution): < 2000 µg/mL | solubility ([10]; tert-butanol, Table 11: Tert-butanol, material never went into solution): < 5000 µg/mL | solubility ([10]; tetrahydrofuran (THF), Table 11: Tetrahydrofuran (THF), material never went into solution): < 2000 µg/mL | solubility [11]: <30 µg/mL | DVS desorption: weight loss from 95 to 5% RH [12]: Desorption: 0.069% weight loss | DVS sorption: weight gain from 5 to 95% RH [12]: 0.064% weight gain from 5 to | DVS sorption: weight gain upon equilibration at 5% RH [12]: Sorption: 0.03% weight gain | Solubility at Adjusted pH ([13]; radezolid salts in water by HPLC at 23° C., pH adjusted to ~3.5): 2.0 mg/mL | Native pH ([13]; supernatant of saturated salt solution in water): 4.6

CC(=O)NC[C@H]1CN(c2ccc(-c3ccc(CNCc4cnn[nH]4)cc3)c(F)c2)C(=O)O1 [Succinate]
solubility [11]: <30 µg/mL
